This passage reports Ki results from ChEMBL document CHEMBL3992518, “Peptide Macrocycle Inhibitor of Coagulation Factor XII with Subnanomolar Affinity and High Target Selectivity” (J Med Chem, 2017).

For the assay, the target named is T1, Coagulation factor XII (Homo sapiens, UniProt P00748).
T1 sequence (P00748 whole entry): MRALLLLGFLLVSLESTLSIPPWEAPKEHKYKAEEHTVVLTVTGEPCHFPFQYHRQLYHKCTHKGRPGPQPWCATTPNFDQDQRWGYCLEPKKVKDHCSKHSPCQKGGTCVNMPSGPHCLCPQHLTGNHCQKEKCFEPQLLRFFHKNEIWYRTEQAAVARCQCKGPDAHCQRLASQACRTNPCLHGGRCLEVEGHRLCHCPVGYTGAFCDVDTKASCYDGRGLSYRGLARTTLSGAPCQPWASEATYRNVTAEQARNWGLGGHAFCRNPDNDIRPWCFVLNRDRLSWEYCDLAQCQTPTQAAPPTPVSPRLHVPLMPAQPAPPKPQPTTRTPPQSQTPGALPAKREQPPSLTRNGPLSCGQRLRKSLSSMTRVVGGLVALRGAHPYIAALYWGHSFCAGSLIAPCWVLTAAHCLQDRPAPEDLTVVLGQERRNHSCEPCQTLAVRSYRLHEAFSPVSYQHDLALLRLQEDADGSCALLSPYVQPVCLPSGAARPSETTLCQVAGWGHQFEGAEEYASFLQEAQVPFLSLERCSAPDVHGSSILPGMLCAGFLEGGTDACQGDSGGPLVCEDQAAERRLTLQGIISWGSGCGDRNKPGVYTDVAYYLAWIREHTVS
Kind of assay: Inhibition of human beta factor 12a using fluorogenic substrate Boc-Gln-Gly-Arg-AMC preincubated for 10 mins followed by addition of substrate measured every min for 30 mins.

SMILES strings stand for the structures. *1 amine or outer side, *2 acyl side, *3 side chain or, on linkers, in order; H or OH if unused. Where a SMILES comes first, the peptide text is derived from it. Bridges are numbered along the chain shown (N, C = ends). [ ]: non-standard residue; d: D form. TATA = O=C(CC[*:1])N1CN(C(=O)CC[*:2])CN(C(=O)CC[*:3])C1; tBuAla = CC(C)(C)C[C@H](N)C(=O)O; Agb = N=C(N)NCC[C@H](N)C(=O)O; hLeu = CC(C)CC[C@H](N)C(=O)O; Nle = CCCC[C@H](N)C(=O)O

For `CCC[C@@H]1NC(=O)[C@H](CCC(N)=O)NC(=O)[C@H](CCCNC(=N)N)NC(=O)[C@@H]2CSCCC(=O)N3CN(CN(C3)C(=O)CCSC[C@H](NC(=O)[C@@H](N)CCCNC(=N)N)C(=O)N[C@@H](Cc3ccccc3)C(=O)N[C@@H](CCCNC(=N)N)C(=O)N[C@@H](CC(C)C)C(=O)N3CCC[C@H]3C(=O)N2)C(=O)CCSC[C@@H](C(=O)N[C@@H](CCCNC(=N)N)C(=O)N[C@@H](Cc2c[nH]c3ccccc23)C(=O)O)NC(=O)[C@H](CCCNC(=N)N)NC1=O`, affinity was put at a Ki of 72 nM. Under `CC(C)C[C@@H]1NC(=O)[C@H](CCC(=O)O)NC(=O)[C@H](CCCNC(=N)N)NC(=O)[C@@H]2CSCCC(=O)N3CN(CN(C3)C(=O)CCSC[C@H](NC(=O)[C@@H](N)CCCNC(=N)N)C(=O)N[C@@H](Cc3ccccc3)C(=O)N[C@@H](CCCNC(=N)N)C(=O)N[C@@H](CC(C)C)C(=O)N3CCC[C@H]3C(=O)N2)C(=O)CCSC[C@@H](C(=O)N[C@@H](CCCNC(=N)N)C(=O)N[C@@H](Cc2c[nH]c3ccccc23)C(=O)O)NC(=O)[C@H](CCCNC(=N)N)NC1=O` (H-RCFRLPCRELRCRW-OH; linker 2-7-12 via TATA) stands greater than 3000 nM. Under `CCCC[C@@H]1NC(=O)[C@H](CCCNC(=N)N)NC(=O)[C@H](Cc2ccccc2)NC(=O)[C@@H](NC(=O)[C@@H](N)CCCNC(=N)N)CSCCC(=O)N2CN3CN(C2)C(=O)CCSC[C@H](NC(=O)[C@@H]2CCCN2C1=O)C(=O)N[C@@H](CCCNC(=N)N)C(=O)N[C@@H](CCC(N)=O)C(=O)N[C@@H](CC(C)C)C(=O)N[C@@H](CCCNC(=N)N)C(=O)N[C@H](C(=O)N[C@@H](CCCNC(=N)N)C(=O)N[C@@H](Cc1c[nH]c2ccccc12)C(=O)O)CSCCC3=O` (H-RCFR[Nle]PCRQLRCRW-OH; linker 2-7-12 via TATA) stands greater than 3000 nM; under `CC[C@H](C)[C@H](N)C(=O)N[C@H]1CSCCC(=O)N2CN3CN(C2)C(=O)CCSC[C@H](NC(=O)[C@@H]2CCCN2C(=O)[C@H](CC(C)C)NC(=O)[C@H](CCCNC(=N)N)NC(=O)[C@H](Cc2ccccc2)NC1=O)C(=O)N[C@@H](CCCNC(=N)N)C(=O)N[C@@H](CCC(N)=O)C(=O)N[C@@H](CC(C)C)C(=O)N[C@@H](CCCNC(=N)N)C(=O)N[C@H](C(=O)N[C@@H](CCCNC(=N)N)C(=O)O)CSCCC3=O` (H-ICFRLPCRQLRCR-OH; linker 2-7-12 via TATA), 83 nM; under `CC(C)CC[C@@H]1NC(=O)[C@H](CCCNC(=N)N)NC(=O)[C@H](Cc2ccccc2)NC(=O)[C@@H](NC(=O)[C@@H](N)CCCNC(=N)N)CSCCC(=O)N2CN3CN(C2)C(=O)CCSC[C@H](NC(=O)[C@@H]2CCCN2C1=O)C(=O)N[C@@H](CCCNC(=N)N)C(=O)N[C@@H](CCC(N)=O)C(=O)N[C@@H](CC(C)C)C(=O)N[C@@H](CCCNC(=N)N)C(=O)N[C@H](C(=O)N[C@@H](CCCNC(=N)N)C(=O)N[C@@H](Cc1c[nH]c2ccccc12)C(=O)O)CSCCC3=O` (H-RCFR[hLeu]PCRQLRCRW-OH; linker 2-7-12 via TATA), 2700 nM. `CC(C)C[C@@H]1NC(=O)[C@H](CCC(N)=O)NC(=O)[C@H](CCCNC(=N)N)NC(=O)[C@@H]2CSCCC(=O)N3CN(CN(C3)C(=O)CCSC[C@H](NC(=O)[C@@H](N)CCCNC(=N)N)C(=O)N[C@@H](Cc3ccccc3)C(=O)N[C@@H](CCCNC(=N)N)C(=O)N[C@@H](CC(C)(C)C)C(=O)N3CCC[C@H]3C(=O)N2)C(=O)CCSC[C@@H](C(=O)N[C@@H](CCCNC(=N)N)C(=O)N[C@@H](Cc2c[nH]c3ccccc23)C(=O)O)NC(=O)[C@H](CCCNC(=N)N)NC1=O` (H-RCFR[tBuAla]PCRQLRCRW-OH; linker 2-7-12 via TATA): the Ki (commonly a measure of affinity in units of concentration, obtained from inhibition or displacement) is greater than 3000 nM. Take `CC(C)C[C@@H]1NC(=O)[C@H](CCC(N)=O)NC(=O)[C@H](CCCNC(=N)N)NC(=O)[C@@H]2CSCCC(=O)N3CN(CN(C3)C(=O)CCSC[C@H](NC(=O)[C@@H](N)CCCNC(=N)N)C(=O)N[C@@H](Cc3ccccc3)C(=O)N[C@@H](CCNC(=N)N)C(=O)N[C@@H](CC(C)C)C(=O)N3CCC[C@H]3C(=O)N2)C(=O)CCSC[C@@H](C(=O)N[C@@H](CCCNC(=N)N)C(=O)N[C@@H](Cc2c[nH]c3ccccc23)C(=O)O)NC(=O)[C@H](CCCNC(=N)N)NC1=O` (H-RCF[Agb]LPCRQLRCRW-OH; linker 2-7-12 via TATA): affinity was put at a Ki of 156 nM. This lies in the sub-micromolar range.
